{"source": "PubChem BioAssay (NCI)", "experiment_in_all_cases": "NCI anticancer screen, dose series, 48 h", "key": {"RPMI-8226 leukemia": {"tested_on": "RPMI-8226 leukemia"}, "NCI-H522 lung": {"tested_on": "NCI-H522 lung"}, "786-0 renal": {"tested_on": "786-0 renal"}, "OVCAR-5 ovarian": {"tested_on": "OVCAR-5 ovarian"}, "SF-295 CNS": {"tested_on": "SF-295 CNS"}, "IGROV1 ovarian": {"tested_on": "IGROV1 ovarian"}, "SN12C renal": {"tested_on": "SN12C renal"}, "COLO 205 colon": {"tested_on": "COLO 205 colon"}, "SF-268 CNS": {"tested_on": "SF-268 CNS"}, "HCC-2998 colon": {"tested_on": "HCC-2998 colon"}}, "note": "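All cell lines were grown in 96-well plates and treated with compound for 48 hours. TGI denotes the concentration required for complete inhibition of growth.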"}
{"compound": "COC(CNC(=O)C(C)NC(=O)/C=C/c1ccccc1)OC", "note": "(stereo not given)", "values": [{"measurement": "TGI", "setting": "RPMI-8226 leukemia", "result": "> 100", "unit": "µM"}, {"measurement": "TGI", "setting": "NCI-H522 lung", "result": "> 100", "unit": "µM"}, {"measurement": "TGI", "setting": "786-0 renal", "result": "> 100", "unit": "µM"}, {"measurement": "TGI", "setting": "OVCAR-5 ovarian", "result": "> 100", "unit": "µM"}, {"measurement": "TGI", "setting": "SF-295 CNS", "result": "> 100", "unit": "µM"}, {"measurement": "TGI", "setting": "IGROV1 ovarian", "result": "> 100", "unit": "µM"}, {"measurement": "TGI", "setting": "SN12C renal", "result": "> 100", "unit": "µM"}, {"measurement": "TGI", "setting": "COLO 205 colon", "result": "> 100", "unit": "µM"}, {"measurement": "TGI", "setting": "SF-268 CNS", "result": "> 100", "unit": "µM"}]}
{"compound": "O=c1cnn(C/C=C/CO)c(=O)[nH]1", "values": [{"measurement": "TGI", "setting": "RPMI-8226 leukemia", "result": "> 100", "unit": "µM"}, {"measurement": "TGI", "setting": "HCC-2998 colon", "result": "> 100", "unit": "µM"}, {"measurement": "TGI", "setting": "NCI-H522 lung", "result": "> 100", "unit": "µM"}, {"measurement": "TGI", "setting": "OVCAR-5 ovarian", "result": "> 100", "unit": "µM"}, {"measurement": "TGI", "setting": "IGROV1 ovarian", "result": "> 100", "unit": "µM"}, {"measurement": "TGI", "setting": "SN12C renal", "result": "> 100", "unit": "µM"}, {"measurement": "TGI", "setting": "COLO 205 colon", "result": "> 100", "unit": "µM"}, {"measurement": "TGI", "setting": "SF-268 CNS", "result": "> 100", "unit": "µM"}]}
{"compound": "CC(C)(C)OC(=O)[C@H]1CCC(=S)N1Cc1ccccc1", "values": [{"measurement": "TGI", "setting": "RPMI-8226 leukemia", "result": "> 100", "unit": "µM"}, {"measurement": "TGI", "setting": "HCC-2998 colon", "result": "> 100", "unit": "µM"}, {"measurement": "TGI", "setting": "NCI-H522 lung", "result": "> 100", "unit": "µM"}, {"measurement": "TGI", "setting": "786-0 renal", "result": "> 100", "unit": "µM"}, {"measurement": "TGI", "setting": "OVCAR-5 ovarian", "result": "> 100", "unit": "µM"}, {"measurement": "TGI", "setting": "SF-295 CNS", "result": "> 100", "unit": "µM"}, {"measurement": "TGI", "setting": "IGROV1 ovarian", "result": "> 100", "unit": "µM"}, {"measurement": "TGI", "setting": "SN12C renal", "result": "> 100", "unit": "µM"}, {"measurement": "TGI", "setting": "COLO 205 colon", "result": "> 100", "unit": "µM"}]}
{"compound": "CCCCNC(=S)Nc1nc(C(=O)NNC(=S)Nc2ccccc2)cs1", "values": [{"measurement": "TGI", "setting": "RPMI-8226 leukemia", "result": "> 100", "unit": "µM"}, {"measurement": "TGI", "setting": "HCC-2998 colon", "result": "> 100", "unit": "µM"}, {"measurement": "TGI", "setting": "786-0 renal", "result": "> 100", "unit": "µM"}, {"measurement": "TGI", "setting": "OVCAR-5 ovarian", "result": "> 100", "unit": "µM"}, {"measurement": "TGI", "setting": "SF-295 CNS", "result": "> 100", "unit": "µM"}, {"measurement": "TGI", "setting": "SN12C renal", "result": "> 100", "unit": "µM"}, {"measurement": "TGI", "setting": "COLO 205 colon", "result": "> 100", "unit": "µM"}, {"measurement": "TGI", "setting": "SF-268 CNS", "result": "> 100", "unit": "µM"}]}
{"compound": "N#Cc1c(N)n(-c2cccc(C(=O)O)c2)c(=O)c2cc([N+](=O)[O-])ccc12", "values": [{"measurement": "TGI", "setting": "RPMI-8226 leukemia", "result": "> 100", "unit": "µM"}, {"measurement": "TGI", "setting": "HCC-2998 colon", "result": "> 100", "unit": "µM"}, {"measurement": "TGI", "setting": "786-0 renal", "result": "> 100", "unit": "µM"}, {"measurement": "TGI", "setting": "SN12C renal", "result": "> 100", "unit": "µM"}, {"measurement": "TGI", "setting": "COLO 205 colon", "result": "> 100", "unit": "µM"}, {"measurement": "TGI", "setting": "SF-268 CNS", "result": "> 100", "unit": "µM"}]}
{"compound": "OC1C#CCSCC#C/C=C\\1", "note": "(stereo not given)", "values": [{"measurement": "TGI", "setting": "HCC-2998 colon", "result": "> 100", "unit": "µM"}, {"measurement": "TGI", "setting": "NCI-H522 lung", "result": 32.9, "unit": "µM"}, {"measurement": "TGI", "setting": "786-0 renal", "result": 39.5, "unit": "µM"}, {"measurement": "TGI", "setting": "OVCAR-5 ovarian", "result": "> 100", "unit": "µM"}, {"measurement": "TGI", "setting": "SF-295 CNS", "result": "> 100", "unit": "µM"}, {"measurement": "TGI", "setting": "IGROV1 ovarian", "result": "> 100", "unit": "µM"}, {"measurement": "TGI", "setting": "SN12C renal", "result": "> 100", "unit": "µM"}, {"measurement": "TGI", "setting": "COLO 205 colon", "result": 29.3, "unit": "µM"}, {"measurement": "TGI", "setting": "SF-268 CNS", "result": "> 100", "unit": "µM"}]}
{"compound": "COc1ccc(P2(=S)OC(C)(C)C(C)(C)O2)cc1", "values": [{"measurement": "TGI", "setting": "NCI-H522 lung", "result": "> 100", "unit": "µM"}, {"measurement": "TGI", "setting": "786-0 renal", "result": "> 100", "unit": "µM"}, {"measurement": "TGI", "setting": "OVCAR-5 ovarian", "result": "> 100", "unit": "µM"}, {"measurement": "TGI", "setting": "SF-295 CNS", "result": "> 100", "unit": "µM"}, {"measurement": "TGI", "setting": "IGROV1 ovarian", "result": "> 100", "unit": "µM"}, {"measurement": "TGI", "setting": "SN12C renal", "result": "> 100", "unit": "µM"}]}
{"compound": "CC12CC(c3ccccc3O1)C(C(=O)Nc1ccc(Cl)cc1Cl)C(=O)N2", "note": "(stereo not given)", "values": [{"measurement": "TGI", "setting": "RPMI-8226 leukemia", "result": "> 100", "unit": "µM"}, {"measurement": "TGI", "setting": "HCC-2998 colon", "result": "> 100", "unit": "µM"}, {"measurement": "TGI", "setting": "NCI-H522 lung", "result": "> 100", "unit": "µM"}, {"measurement": "TGI", "setting": "786-0 renal", "result": 43.8, "unit": "µM"}, {"measurement": "TGI", "setting": "OVCAR-5 ovarian", "result": "> 100", "unit": "µM"}, {"measurement": "TGI", "setting": "SF-295 CNS", "result": "> 100", "unit": "µM"}, {"measurement": "TGI", "setting": "IGROV1 ovarian", "result": 50.9, "unit": "µM"}, {"measurement": "TGI", "setting": "COLO 205 colon", "result": "> 100", "unit": "µM"}, {"measurement": "TGI", "setting": "SF-268 CNS", "result": "> 100", "unit": "µM"}]}
{"compound": "Oc1[nH]c2ccccc2c1N=NC(=S)Nc1cccc(Cl)c1", "values": [{"measurement": "TGI", "setting": "HCC-2998 colon", "result": "> 100", "unit": "µM"}, {"measurement": "TGI", "setting": "NCI-H522 lung", "result": 77.6, "unit": "µM"}, {"measurement": "TGI", "setting": "786-0 renal", "result": 27.6, "unit": "µM"}, {"measurement": "TGI", "setting": "OVCAR-5 ovarian", "result": "> 100", "unit": "µM"}, {"measurement": "TGI", "setting": "SF-295 CNS", "result": 29.2, "unit": "µM"}, {"measurement": "TGI", "setting": "IGROV1 ovarian", "result": 89, "unit": "µM"}, {"measurement": "TGI", "setting": "SN12C renal", "result": "> 100", "unit": "µM"}, {"measurement": "TGI", "setting": "COLO 205 colon", "result": "> 100", "unit": "µM"}, {"measurement": "TGI", "setting": "SF-268 CNS", "result": "> 100", "unit": "µM"}]}
{"compound": "COC(=O)C(Cc1c[nH]c2ccccc12)NP(=O)(O)OCC1OC(n2cc(I)c(=O)[nH]c2=O)CC1O", "note": "(stereo not given)", "values": [{"measurement": "TGI", "setting": "RPMI-8226 leukemia", "result": "> 100", "unit": "µM"}, {"measurement": "TGI", "setting": "NCI-H522 lung", "result": "> 100", "unit": "µM"}, {"measurement": "TGI", "setting": "786-0 renal", "result": "> 100", "unit": "µM"}, {"measurement": "TGI", "setting": "OVCAR-5 ovarian", "result": "> 100", "unit": "µM"}, {"measurement": "TGI", "setting": "SF-295 CNS", "result": "> 100", "unit": "µM"}, {"measurement": "TGI", "setting": "IGROV1 ovarian", "result": "> 100", "unit": "µM"}, {"measurement": "TGI", "setting": "SN12C renal", "result": "> 100", "unit": "µM"}, {"measurement": "TGI", "setting": "COLO 205 colon", "result": "> 100", "unit": "µM"}, {"measurement": "TGI", "setting": "SF-268 CNS", "result": "> 100", "unit": "µM"}]}
{"compound": "O=C(O)[C@@H]1CCS(=O)(=O)N1", "values": [{"measurement": "TGI", "setting": "HCC-2998 colon", "result": "> 100", "unit": "µM"}, {"measurement": "TGI", "setting": "NCI-H522 lung", "result": "> 100", "unit": "µM"}, {"measurement": "TGI", "setting": "786-0 renal", "result": "> 100", "unit": "µM"}, {"measurement": "TGI", "setting": "OVCAR-5 ovarian", "result": "> 100", "unit": "µM"}, {"measurement": "TGI", "setting": "SF-295 CNS", "result": "> 100", "unit": "µM"}, {"measurement": "TGI", "setting": "IGROV1 ovarian", "result": "> 100", "unit": "µM"}, {"measurement": "TGI", "setting": "SN12C renal", "result": "> 100", "unit": "µM"}, {"measurement": "TGI", "setting": "COLO 205 colon", "result": "> 100", "unit": "µM"}, {"measurement": "TGI", "setting": "SF-268 CNS", "result": "> 100", "unit": "µM"}]}
{"compound": "O=C1/C(=C/c2ccccc2S)N=C(c2ccccc2)N1c1nc2c(Cl)cc(Cl)cc2s1", "values": [{"measurement": "TGI", "setting": "RPMI-8226 leukemia", "result": 54.1, "unit": "µM"}, {"measurement": "TGI", "setting": "HCC-2998 colon", "result": 54.7, "unit": "µM"}, {"measurement": "TGI", "setting": "786-0 renal", "result": 74.1, "unit": "µM"}, {"measurement": "TGI", "setting": "OVCAR-5 ovarian", "result": 54.8, "unit": "µM"}, {"measurement": "TGI", "setting": "SF-295 CNS", "result": 72.4, "unit": "µM"}, {"measurement": "TGI", "setting": "IGROV1 ovarian", "result": 67.2, "unit": "µM"}, {"measurement": "TGI", "setting": "SN12C renal", "result": 44.2, "unit": "µM"}, {"measurement": "TGI", "setting": "COLO 205 colon", "result": 54.8, "unit": "µM"}, {"measurement": "TGI", "setting": "SF-268 CNS", "result": "> 100", "unit": "µM"}]}
